Test results from the supplement of paper PMC10307832.

Key:
Pictilisib = compound: CS(=O)(=O)N1CCN(Cc2cc3nc(-c4cccc5[nH]ncc45)nc(N4CCOCC4)c3s2)CC1 [Pictilisib]; assay: relative viability (nuclei count vs DMSO), 5 days (fraction); higher = more cells survive
Procedure, shortened: (§1)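 For viability, nuclei in each treated well were divided by nuclei in vehicle wells and the median across plates was taken. Lung cancer cell lines in 1536-well plates were pinned with five library-drug doses (not always all listed) spaced by √10, cultured 5 days without medium change, and imaged at 4× after Hoechst staining, with plates passing only at control CV below 25% and at least one doubling.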

MK-2206 = compound: NC1(c2ccc(-c3nc4ccn5c(=O)[nH]nc5c4cc3-c3ccccc3)cc2)CCC1 [MK-2206]; assay: as above
Procedure, shortened: as §1

Cell Line	relative viability (Pictilisib; 0.02 µM)	relative viability (Pictilisib; 0.06325 µM)	relative viability (Pictilisib; 0.6325 µM)	relative viability (Pictilisib; 1 µM, anchor plate)	relative viability (Pictilisib; 2 µM)	relative viability (MK-2206; 0.01 µM)	relative viability (MK-2206; 0.03162 µM)	relative viability (MK-2206; 0.3162 µM)	relative viability (MK-2206; 1 µM)
NCI-H2023	1.04	0.831	0.55	0.262	0.18	0.972	0.946	0.757	0.605
Calu-6	1.05	1.04	1.01	0.907	0.792	1.02	1.06	1.01	0.962
SW 900	1.02	0.93	0.632	–	0.565	0.862	0.731	0.866	0.629
HOP-62	1.04	1.07	0.97	0.743	0.941	0.91	1.08	0.993	0.918
H3255	1.01	0.962	0.862	0.46	0.531	0.941	1.01	0.836	0.826
NCI-H1734	1.04	0.998	0.623	0.475	0.435	1.01	0.988	0.764	0.795
SK-MES-1	1.04	1.01	0.778	0.392	0.365	0.959	1.02	0.954	0.887
NCI-H1792	0.762	1.1	0.618	0.31	0.236	0.941	0.869	0.971	0.677
EKVX	0.911	0.941	0.91	0.433	0.453	1.01	0.952	0.936	0.758
EPLC-272H	0.988	0.909	0.668	0.332	0.496	1.09	0.914	0.77	0.716
LK-2	0.938	0.926	0.656	0.598	0.415	0.944	1.09	1.05	0.911
CAL-12T	1.12	1.12	1.03	0.475	0.589	0.939	1.06	1.07	0.953
NCI-H322M	0.988	0.973	0.714	0.531	0.453	0.914	1.06	0.981	1.05
NCI-H1650	1	1.01	0.809	0.598	0.532	0.854	1.01	0.883	0.946
NCI-H2342	0.949	0.931	0.838	–	0.531	1.05	0.959	0.892	0.815
SW 1573	0.966	0.958	0.768	0.487	0.403	0.997	1.03	0.773	0.782
NCI-H2405	1.07	0.977	0.851	0.433	0.451	1.02	1.03	0.968	0.839
LCLC-103H	1.05	0.984	0.707	0.625	0.663	0.923	0.984	0.982	1.11
HCC-44	1.03	0.975	0.991	0.612	0.644	0.967	1.01	0.989	0.723
RERF-LC-KJ	0.974	0.944	0.807	0.565	0.575	0.943	0.997	0.854	0.919
NCI-H1975	0.98	0.804	0.605	0.307	0.292	1.06	0.931	0.913	0.728
IA-LM	0.924	1.03	0.941	0.373	0.476	0.904	0.992	1.02	0.691
LCLC-97TM1	0.928	0.932	0.791	0.199	0.217	0.941	1.05	0.968	0.829
NCI-H520	0.998	0.886	0.361	0.298	0.203	0.992	0.871	0.553	0.331
A-427	1.1	1.07	0.921	0.698	0.74	1.04	1.06	0.981	0.974

Cell Line	relative viability (Pictilisib; 0.02 µM)	relative viability (Pictilisib; 0.06325 µM)	relative viability (Pictilisib; 0.6325 µM)	relative viability (Pictilisib; 1 µM, anchor plate)	relative viability (Pictilisib; 2 µM)	relative viability (MK-2206; 0.01 µM)	relative viability (MK-2206; 0.03162 µM)	relative viability (MK-2206; 0.3162 µM)	relative viability (MK-2206; 1 µM)
ABC-1	1.02	0.962	0.764	0.782	0.551	0.947	0.949	0.884	0.879
NCI-H460	0.993	1.02	0.933	0.381	0.353	0.997	1.03	1.02	0.921
NCI-H1395	1.12	1.01	0.715	0.649	0.54	1	0.91	0.701	0.793
EBC-1	0.943	1.14	0.868	0.409	0.272	0.986	1.01	0.819	0.29
NCI-H23	1.01	1.09	0.808	0.525	0.478	0.944	0.909	0.896	0.783
LOU-NH91	1.02	0.987	0.874	0.538	0.681	0.983	0.999	1.02	0.875
NCI-H2009	1.03	1.04	0.967	0.783	0.679	0.97	1.04	1.02	0.993
NCI-H358	0.983	0.884	0.786	0.356	0.355	1.01	0.977	0.972	0.871
NCI-H2126	0.999	0.992	0.806	0.52	0.57	1.04	1.03	0.913	0.92
ChaGo-K-1	1.04	1.02	0.893	0.783	0.815	1.02	1.14	0.968	0.866
NCI-H1437	1.03	1.06	0.902	0.482	0.528	0.993	0.963	1.07	0.925
SK-LU-1	1.06	0.963	0.933	0.534	0.678	1.09	1.05	1.1	0.944
NCI-H838	1.01	0.902	0.722	0.455	0.426	0.98	1.01	0.918	0.92
NCI-H1755	1.01	0.979	0.925	0.434	0.639	0.955	0.989	0.907	0.918
NCI-H2228	0.962	0.998	0.742	0.413	0.361	0.871	0.845	0.658	0.517
NCI-H1915	1.06	1.04	0.95	0.96	0.909	1	1.06	0.967	0.95
NCI-H2347	1.02	1.05	0.934	0.644	0.708	0.952	0.997	0.997	0.945
HARA	1.05	1.13	0.846	0.401	0.555	0.972	1.08	1.08	0.832
NCI-H2085	0.956	0.99	0.836	0.471	0.442	0.965	1.01	0.957	0.969
NCI-H650	1.03	0.958	0.848	0.865	0.687	0.986	0.854	0.97	0.764
NCI-H727	1.04	0.92	0.914	0.39	0.536	0.976	1.01	0.901	0.894
NCI-H1993	0.94	0.869	0.639	0.766	0.674	0.907	0.987	0.737	0.618
A549	0.992	0.97	0.731	0.517	0.437	1.02	1.07	0.921	0.877
EMC-BAC-2	1.21	1.04	0.727	0.555	0.565	0.95	0.959	0.926	0.871
NCI-H1563	1.01	0.929	0.668	0.626	0.533	0.925	0.975	0.885	0.764

Cell Line	relative viability (Pictilisib; 0.02 µM)	relative viability (Pictilisib; 0.06325 µM)	relative viability (Pictilisib; 0.6325 µM)	relative viability (Pictilisib; 1 µM, anchor plate)	relative viability (Pictilisib; 2 µM)	relative viability (MK-2206; 0.01 µM)	relative viability (MK-2206; 0.03162 µM)	relative viability (MK-2206; 0.3162 µM)	relative viability (MK-2206; 1 µM)
NCI-H1703	0.929	0.806	0.408	0.244	0.208	0.985	0.868	0.825	0.784
NCI-H2087	1.07	1.09	0.968	0.913	0.689	0.938	1.25	0.881	0.746
NCI-H1299	1.06	1.05	1.06	0.773	0.991	1.02	1.02	1.04	1.01
NCI-H441	1.01	1.06	0.595	0.514	0.48	1.09	1.05	0.845	0.921
LXF-289	0.996	1.01	1.08	0.814	0.92	0.995	1.07	1.03	1.09
NCI-H661	1.02	1.05	1.03	0.424	0.672	0.997	1.02	1.03	1.01
PC-3 [JPC-3]	1.06	1.13	1.1	0.735	0.856	1.02	1.04	1.11	1.07
HCC-366	0.986	1.02	0.851	0.159	0.448	1.02	1.02	0.978	0.98
NCI-H522	1	1.05	0.768	–	0.648	0.916	1.01	0.885	0.696
NCI-H1651	0.961	0.997	0.918	0.639	0.631	0.949	0.968	1.03	0.937
NCI-H1648	0.783	0.906	0.39	–	0.318	0.873	1.06	1.06	1.05
NCI-H1355	0.977	1	0.918	0.461	0.588	0.977	0.997	0.9	0.788
LC-2-ad	1.05	1.07	0.619	0.496	0.594	0.969	1.05	0.994	0.876
NCI-H1944	1.15	0.879	0.595	0.354	0.32	1.03	1.01	0.965	0.987
HCC-827	1.11	1.05	1.05	0.939	0.866	1.04	1.05	1.05	0.932
COR-L23	1.14	1.1	1.03	0.807	0.763	1.01	1.05	1.03	0.99
NCI-H3122	1.01	1.04	0.954	0.644	0.511	1.02	1.03	1.05	0.984
NCI-H2170	1	1.02	0.86	0.329	0.556	0.93	1.03	0.923	0.877
NCI-H1793	0.864	0.956	0.539	0.343	0.359	0.979	1.04	0.887	0.743
BEN	1	1.01	0.951	0.57	0.75	0.97	1.08	1.07	0.836
NCI-H1623	0.962	0.94	0.664	–	0.341	0.957	1.07	0.946	0.914
NCI-H647	1.09	1.03	0.78	0.476	0.471	0.951	1.11	0.921	0.744
PC-14	1.1	1.14	0.994	0.672	0.703	0.937	1.02	0.991	1
HCC-78	0.867	0.854	0.586	0.219	0.376	0.945	0.919	1.02	0.638
NCI-H1666	1.06	1.11	0.961	0.47	0.679	0.973	0.9	1.04	0.846
